The source of these data is patent publication US8946271B2, “Water soluble furoxan derivatives having antitumor activity” (Humanitas Mirasole S.p.A., priority 2010, dated 2015).

Usually solubility stands for how much of the substance goes into solution per volume. A high value points to much dissolved substance.

The nature of data set [1]: Stability in human serum at 37° C. (RP-HPLC). Format: in vitro ADME. The following applies: for half-life at 200 μM: read-out: Stability in human serum t1/2. On the procedure:
(§1) The stability of the compound MC526 was studied through reverse phase chromatography in an aqueous medium at pH=1 and in the human serum at 37° C.
In order to assay the stability of the compound of Example 1 in human serum, a 10 mM solution of the compound in DMSO was added to human serum (obtained from human AB plasma, Sigma) preheated to 37° C. The final concentration of the compound was 200 μM. The resulting solution was incubated at 37±0.5° C. and 300 μL aliquots of the reaction mixture were collected and added to an equal amount of acetonitrile containing trifluoroacetic acid 0.1% at suitable time intervals for deproteinising the serum. The sample was sonicated, vortexed and then centrifuged for 10 minutes at 2150 g. The white supernatant was filtered using PTFE 0.45μm (Alltech) filters and analysed through RP-HPLC.
(§2) The analysis in RP-HPLC allows separating and quantifying the initial compounds and those deriving from hydrolysis. Analysis was carried out using a HP1100 (Agilent Technologies, Palo Alto, Calif., USA) chromatography system equipped with a quaternary pump (model G1311A), a degassing membrane (G1379A), a diode-array detector (DAD) (model G1315B) integrated in the HP1100 system. A HP ChemStation (Agilent Technologies) system was used for analyzing data. The analytic column was Nucleosil 100-5 C18 Nautilus (250×4, 6 mm, size of the particles 5 μm) (Macherey-Nagel). The mobile phase used was constituted by acetonitrile/water (55/45) with 0.1% trifluoroacetic acid and the flow rate is of 1.2 ml/min. The injection volume was 20 μl (Rheodyne, Cotati, Calif.). The effluent from column was monitored at 226 nm (for the compound MC526 and for CAS 1609) and at 240 nm (for salicylic acid and the salicylate AT38) against a reference at 600 nm. The quantification of the initial products and those deriving from hydrolysis was carried out by means of calibration curves obtained using standards studied in the same conditions (for concentrations comprised between 5 and 200 μM).

The nature of data set [2]: Solubility in water. In kind it is physicochemical.
Data set [3] in a line: Stability in aqueous medium at pH=1 (0.1 M HCl, 37° C., RP-HPLC). In kind it is physicochemical. The following applies: compound unaltered after 1 hour of incubation, 100 μM. On the procedure:
as §1
In particular, a 10 mM solution of the compound of Example 1 in DMSO was added to a 0.1 M solution of HCl preheated to 37° C. The final concentration of the compound was 100 μM. The resulting solution was maintained at 37±0.5° C. and 20 μl aliquots of the reaction solution were analysed by means of RP-HPLC at suitable time intervals.
as §2

Data set [4] has as its system splenocytes of the BALB/C from the control animal group and from the animals carrying colon carcinoma26 (C26GM). The data set is described as follows: Proliferation assay (3H-TdR) of anti-CD3/anti-CD28 stimulated splenocytes. In kind it is cell-based, mice. Particulars: FIG. 7. On the procedure:
The mice BALB/c were inoculated s.c. in the inguinal cavity with 0.5*10^6 cells C26GM. The mice were sacrificed after 9 days and the splenocytes were used for in vitro assays.
The splenocytes of the BALB/C from the control animal group and from the animals carrying colon carcinoma26 (C26GM) are plated to the concentration of 6*10^5 cells per well and stimulated with 3 μg/ml anti-CD3 (2C11, ATCC) and 2 μg/ml of anti-CD28 (clone 37.5, ATCC) both with and without scalar dilutions of the compounds subject of the invention. After 3 days of incubation, 1 μCi/well (1 Cl=37 GBq) of ^3H-TdR (PerkinElmer) is added to the culture for 18 hours and the addition thereof is monitored by scintillation.
In particular, the controls (Unst) refer to cells not stimulated with antiCD3 and antiCD28 and the control (St) on stimulated cells but drug-free. It can be observed that the doses corresponding to 200 μM and 100 μM are toxic for the cells, in that the proliferation is not observed even on healthy splenocytes.

Molecules are shown by their SMILES. Structures can show the parent of a compound that is named as a salt.

Take `NC(=O)c1c(COC(=O)c2ccccc2O)no[n+]1[O-]` [AT38, [3-(aminocarbonyl)furoxan-4-yl]methyl salicylate, reference compound]: the “Hydrolysis of the salicylate derivative in human serum” value in data set [1] (release of CAS 1609 and salicylic acid) is “slowly releases the CAS 1609 compound and salicylic acid”. Also, in data set [2], the solubility was under 1 µg/mL.
For the compound `NCCC(=O)Oc1ccccc1C(=O)OCc1no[n+]([O-])c1C(N)=O` [MC526, ([3-(aminocarbonyl)furoxan-4-yl]methyl-2-(β-alanyloxy)benzoate)hydrochloride], in data set [3], the “Stability in buffer at pH = 1 after 1 hour” value (“Stability in buffer” below) is 60%. Moreover, in data set [1], the half-life at 200 μM came to 1.4 min. This compound displayed a solubility in data set [2] of 10000 µg/mL. Moreover, the Proliferation assay result in data set [4] (12.5 μM) was “efficient and non-toxic”; in data set [4] (25 μM), “efficient and non-toxic”; in data set [4] (100 μM, healthy splenocytes), “toxic”; in data set [4] (200 μM, healthy splenocytes), “toxic”. In addition, the “Proliferation assay result on healthy cells” value in data set [4] (50 μM, healthy cells) was “partly toxic”.
For `CC(N)C(=O)Oc1ccccc1C(=O)OCc1no[n+]([O-])c1C(N)=O` (stereo not shown) [MC598, ([3-(aminocarbonyl)furoxan-4-yl]methyl-2-(alanyloxy)benzoate hydrochloride)], the “Stability in buffer” value in data set [3] is given as 80%. For the same compound, the half-life at 200 μM in data set [1] was 1.3 min. The solubility in data set [2] was determined as 10000 µg/mL.
For `NCCCC(=O)Oc1ccccc1C(=O)OCc1no[n+]([O-])c1C(N)=O` [MC596, ([3-(aminocarbonyl)furoxan-4-yl]methyl-2-(4-aminobutanoyloxy)benzoate hydrochloride)], the “Stability in buffer” value in data set [3] stood at 90%. Besides, the half-life at 200 μM in data set [1] is 1.6 min. The compound also registered a solubility in data set [2] of 2500 µg/mL.
